Laboratory results reported in patent publication US20240317721A1, “PYRAZOLYL DERIVATIVES AS INHIBITORS OF THE KRAS MUTANT PROTEIN” (NOVARTIS AG, priority 2021, published 2024).

target: KRasG12C (M1-K169, biotinylated on the N-terminus) (Homo sapiens (Human), UniProt P01116, G12C); assay: Covalent competition assay: scintillation proximity assay (SPA) quantifying covalent modification of KRASG12C; format: binding; details: competition with radiolabeled covalent probe (Compound B/Compound A), 2 hours incubation, 10 nM KRasG12C
In short: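 Test compounds compete with a radiolabeled covalent probe for modification of N-terminally biotinylated KRasG12C(M1-K169):GDP, final 10 nM protein, 25 nM radio-ligand, 475 nM unlabelled ligand, 2 h with agitation in 20 mM Tris-HCl pH 7.5, 150 mM NaCl, 0.1 mM MgCl2, 0.01% Tween-20.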

SMILES | IC50
C=CC(=O)N1CC2(CC(n3nc(N4CCN(C(C)=O)CC4)c(-c4c(Cl)ccc5[nH]ncc45)c3C)C2)C1 (single isomer, unassigned) [Example 36a, 1-(6-(3-(4-acetylpiperazin-1-yl)-4-(5-chloro-1H-indazol-4-yl)-5-methyl-1H-pyrazol-1-yl)-2-azaspiro[3.3]heptan-2-yl)prop-2-en-1-one] | 24.4 µM
C=CC(=O)N1CC2(CC(n3nc(N4CC[C@@H](CN5CCN(C6COC6)CC5)CC4(C)C)c(-c4c(Cl)c(C)cc5[nH]ncc45)c3C)C2)C1 (single isomer, unassigned) [Example 246b] | 0.015 µM
C=CC(=O)N1CC2(CC(n3nc(N4CC[C@@H](CN5CC6C5CCN6C5COC5)CC4(C)C)c(-c4c(Cl)c(Cl)cc5[nH]ncc45)c3C)C2)C1 (single isomer, unassigned) [Example 278b, 1-(6-(4-(5,6-dichloro-1H-indazol-4-yl)-3-((R)-2,2-dimethyl-4-(((1S*,5S*)-2-(oxetan-3-yl)-2,6-diazabicyclo[3.2.0]heptan-6-yl)methyl)piperidin-1-yl)-5-methyl-1H-pyrazol-1-yl)-2-azaspiro[3.3]heptan-2-yl)prop-2-en-1-one] | 0.008 µM
C=CC(=O)N1CC2(CC(n3nc(N4CCN(CCN5CCOCC5=O)C[C@]4(C)CC)c(-c4c(Cl)c(C)cc5[nH]ncc45)c3C)C2)C1 (single isomer, unassigned) [Example 177b] | 1.7 µM
C=CC(=O)N1CC2(CC(n3nc(N4CC[C@@H](CN5CCOCC5)CC4(C)C)c(-c4c(Cl)c(Cl)cc5[nH]ncc45)c3C)C2)C1 (single isomer, unassigned) [Example 213a] | 3.5 µM
C=CC(=O)N1CC2(CC(n3nc(N4CCN(C(C)=O)C[C@@H]4CC)c(-c4c(Cl)c(C)cc5[nH]ncc45)c3C)C2)C1 (single isomer, unassigned) [Example 94a] | > 50 µM
C=CC(=O)N1CC2(CC(n3nc(N4CCN(C5COC5)CC45CCOC5)c(-c4c(Cl)c(C)cc5[nH]ncc45)c3C)C2)C1 (stereo not drawn) [Example 141a, 1-(6-(4-(5-chloro-6-methyl-1H-indazol-4-yl)-5-methyl-3-(9-(oxetan-3-yl)-2-oxa-6,9-diazaspiro[4.5]decan-6-yl)-1H-pyrazol-1-yl)-2-azaspiro[3.3]heptan-2-yl)prop-2-en-1-one] | > 5 µM
C=CC(=O)N1CC2(CC(n3nc(N4CCC(CN5CC6CC(C5)O6)CC4(C)C)c(-c4c(Cl)c(Cl)cc5[nH]ncc45)c3C)C2)C1 (single isomer, unassigned) [Example 229b, 1-(6-(3-(4-((6-oxa-3-azabicyclo[3.1.1]heptan-3-yl)methyl)-2,2-dimethylpiperidin-1-yl)-4-(5,6-dichloro-1H-indazol-4-yl)-5-methyl-1H-pyrazol-1-yl)-2-azaspiro[3.3]heptan-2-yl)prop-2-en-1-one] | 0.011 µM
C=CC(=O)N1CC2(CC(n3nc(N4CC[C@@H](CN5CCN(CCOC)C(=O)C5)CC4(C)C)c(-c4c(Cl)c(Cl)cc5[nH]ncc45)c3C)C2)C1 (single isomer, unassigned) [Example 256a] | 1.3 µM
C=CC(=O)N1CC2(CC(n3nc(N4CCN(C5COC5)C[C@]4(C)CCOC)c(-c4c(Cl)c(C)cc5[nH]ncc45)c3C)C2)C1 (single isomer, unassigned) [Example 86a] | 2.3 µM
C=CC(=O)N1CC2(CC(n3nc(N4CC[C@@H](CN5CCC6COCC65)CC4(C)C)c(-c4c(C)c(Cl)cc5[nH]ncc45)c3C)C2)C1 (single isomer, unassigned) [Example 305a, 1-(6-(4-(6-chloro-5-methyl-1H-indazol-4-yl)-3-((R)-4-(((3aR*,6aR*)-hexahydro-1H-furo[3,4-b]pyrrol-1-yl)methyl)-2,2-dimethylpiperidin-1-yl)-5-methyl-1H-pyrazol-1-yl)-2-azaspiro[3.3]heptan-2-yl)prop-2-en-1-one] | 2.5 µM
C=CC(=O)N1CC2(CC(n3nc(N4CC[C@@H](CN5CC6(COCCN6C)C5)CC4(C)C)c(-c4c(Cl)c(Cl)cc5[nH]ncc45)c3C)C2)C1 (single isomer, unassigned) [Example 291b] | 0.008 µM
C=CC(=O)N1CC2(CC(n3nc(N4CCN(C(C)=O)CC4(C)C)c(-c4c(Cl)c(C)cc5[nH]ncc45)c3C3CC3)C2)C1 (single isomer, unassigned) [Example 24b, 1-(6-(3-(4-acetyl-2,2-dimethylpiperazin-1-yl)-4-(5-chloro-6-methyl-1H-indazol-4-yl)-5-cyclopropyl-1H-pyrazol-1-yl)-2-azaspiro[3.3]heptan-2-yl)prop-2-en-1-one] | 0.167 µM

Next, values leading:

IC50 | SMILES
1.2 µM | C=CC(=O)N1CC2(CC(n3nc(N4CC[C@@H](CN5CC6(CCOC6)C5)CC4(C)C)c(-c4c(Cl)c(Cl)cc5[nH]ncc45)c3C)C2)C1 (single isomer, unassigned) [Example 316a]
3.4 µM | C=CC(=O)N1CC2(CC(n3nc(N4CC[C@@H](CN5CCN(C6COC6)C[C@@H]5CO)CC4(C)C)c(-c4c(Cl)c(Cl)cc5[nH]ncc45)c3C)C2)C1 (single isomer, unassigned) [Example 290a]
0.009 µM | C=CC(=O)N1CC2(CC(n3nc(N4CCN(C5COCCOC5)C[C@]4(C)CC)c(-c4c(Cl)c(C)cc5[nH]ncc45)c3C)C2)C1 (single isomer, unassigned) [Example 159b]
0.006 µM | C=CC(=O)N1CC2(CC(n3nc(N4CCN(C5CCCOC5)C[C@]4(C)CC)c(-c4c(Cl)c(C)cc5[nH]ncc45)c3C)C2)C1 (single isomer, unassigned) [Example 157c]
> 5 µM | C=CC(=O)N1CC2(CC(n3nc(N4CCC5C(CC(=O)N5C)C4)c(-c4c(Cl)c(C)cc5[nH]ncc45)c3C)C2)C1 (single isomer, unassigned) [Example 38a, 5-(1-(2-acryloyl-2-azaspiro[3.3]heptan-6-yl)-4-(5-chloro-6-methyl-1H-indazol-4-yl)-5-methyl-1H-pyrazol-3-yl)-1-methyloctahydro-2H-pyrrolo[3,2-c]pyridin-2-one]
25.2 µM | C=CC(=O)N1CC2(CC(n3nc(N4CCN(C(=O)C5CC5)CC4(C)C)c(-c4c(Cl)c(C)cc5[nH]ncc45)c3C)C2)C1 (single isomer, unassigned) [Example 127a, 1-(6-(4-(5-chloro-6-methyl-1H-indazol-4-yl)-3-(4-(cyclopropanecarbonyl)-2,2-dimethylpiperazin-1-yl)-5-methyl-1H-pyrazol-1-yl)-2-azaspiro[3.3]heptan-2-yl)prop-2-en-1-one]
3.9 µM | C=CC(=O)N1CC2(CC(n3nc(N4CCN(CCOC)C[C@]4(C)C(F)F)c(-c4c(Cl)c(C)cc5[nH]ncc45)c3C)C2)C1 (single isomer, unassigned) [Example 178a]
0.007 µM | C=CC(=O)N1CC2(CC(n3nc(N4CCC5(CN(C6COC6)C5)CC4(C)C)c(-c4c(Cl)c(Cl)cc5[nH]ncc45)c3C)C2)C1 (single isomer, unassigned) [Example 92b, 1-(6-(4-(5,6-dichloro-1H-indazol-4-yl)-3-(6,6-dimethyl-2-(oxetan-3-yl)-2,7-diazaspiro[3.5]nonan-7-yl)-5-methyl-1H-pyrazol-1-yl)-2-azaspiro[3.3]heptan-2-yl)prop-2-en-1-one]
